Laboratory results reported in paper PMC10300155, “Inhibition of TRPV4 remodels single cell polarity and suppresses the metastasis of hepatocellular carcinoma” (Cell Death & Disease, 2023).

What was measured:
[1] = molecular target: T1, TRPV4 (purified, fluorescently labeled) (Homo sapiens, UniProt Q9HBA0); test: microscale thermophoresis (Monolith NT.[…]); format: binding
T1 construct: purified protein, fluorescently labeled for MST

[2] = molecular target: T2, TRPV4 (native, MHCC-97H cells) (Homo sapiens, UniProt Q9HBA0); test: Fluo-4 AM calcium influx, flow cytometry; format: cell-based; conditions: inhibitor; 0.5 h pre-treatment; agonist GSK1016790A; adherent MHCC-97H cells
T2 construct: endogenous channel in human hepatocellular carcinoma MHCC-97H cells
T2 sequence (Q9HBA0 whole entry): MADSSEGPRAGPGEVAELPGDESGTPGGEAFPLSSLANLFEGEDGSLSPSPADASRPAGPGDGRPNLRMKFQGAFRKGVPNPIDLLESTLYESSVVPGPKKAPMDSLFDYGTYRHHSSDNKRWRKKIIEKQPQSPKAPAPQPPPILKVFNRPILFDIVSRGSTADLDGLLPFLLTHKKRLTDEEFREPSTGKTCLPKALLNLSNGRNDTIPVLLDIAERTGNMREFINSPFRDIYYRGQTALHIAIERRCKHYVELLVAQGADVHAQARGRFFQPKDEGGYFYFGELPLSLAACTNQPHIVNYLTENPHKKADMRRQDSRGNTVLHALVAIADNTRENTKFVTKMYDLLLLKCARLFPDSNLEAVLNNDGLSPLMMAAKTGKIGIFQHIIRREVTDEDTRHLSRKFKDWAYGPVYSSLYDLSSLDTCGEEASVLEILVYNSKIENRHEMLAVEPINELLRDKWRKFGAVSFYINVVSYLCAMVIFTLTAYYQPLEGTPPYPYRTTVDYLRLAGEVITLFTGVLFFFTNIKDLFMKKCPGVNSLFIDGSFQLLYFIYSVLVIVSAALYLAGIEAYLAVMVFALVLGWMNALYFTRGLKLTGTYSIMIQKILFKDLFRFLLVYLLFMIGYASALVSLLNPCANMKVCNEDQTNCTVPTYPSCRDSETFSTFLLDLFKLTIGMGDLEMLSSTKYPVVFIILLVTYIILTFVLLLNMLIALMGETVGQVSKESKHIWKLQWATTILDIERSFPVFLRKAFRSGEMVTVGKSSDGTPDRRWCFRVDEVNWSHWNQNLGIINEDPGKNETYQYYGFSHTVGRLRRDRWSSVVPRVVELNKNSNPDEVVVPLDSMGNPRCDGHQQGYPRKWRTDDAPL

T1 sequence (Q9HBA0 whole entry): as above

In the case of `COc1c(OCCCCN2CCCC2)cc(O)c2c(=O)cc(-c3ccccc3)oc12` [GL-V9, 5-hydroxy-8-methoxy-2-phenyl-7-(4-(pyrro-lidin-1-yl)butoxy)4H-chromen-4-one], the Kd [1] is reported as 106 nM and the “Fluo-4 AM calcium influx, flow cytometry” value [2] is reported as “substantially reduced the calcium influx brought on by GSK1016790A”.
